This note sets out measurements from a melting point compilation (Tetko et al.; mined from patent text by program, amines drawn as free bases though some values may be those of a salt).

A word on the melting point: it is the temperature, or range, at which the solid turns liquid. Compound `CN1CCN(C(=O)CC2c3ccccc3C(=O)N2c2ccc(Cl)cn2)CC1` (stereo not drawn) gave a melting point of 190 to 193 °C.

Regarding `CC(=O)Oc1cccc2c1C(=O)c1c(OC(C)=O)cc(-c3nc4ccccc4n3C)cc1C2=O`, the melting point fell in the range of 279 to 280 °C. In the case of `Nc1c(C=O)c(=O)n(-c2ccccc2)c(=O)n1-c1ccccc1`, the melting point was 141 to 142 °C. In the case of `O=C(O)c1ccc(SCc2c(O[C@H](Cn3ccnc3)c3ccccc3)ccc3c2CCCC3=O)cc1`, the melting point is 215 °C. `CC(CCC(=O)N(C)C)C1CC=C2C3=C(CCC21C)C1(C)CCC(O)C(C)(C)C1CC3` (stereo not drawn) yielded a melting point of 192 to 195 °C.

For `CN1CC2C(C1)C2Nc1ncc2cc(-c3ccccc3Cl)c(=O)n(C3CC3)c2n1` (stereo not drawn), the melting point lay within 190 to 191 °C. The value for `CN(C)C(=O)CCNC(=O)c1ccc(-c2ccc3nnn(Cc4ccc5ncccc5c4)c3n2)cc1F` was 163 to 165 °C; that for `COc1cc(-n2c(-c3ccc(SC)cc3)nc(SC)c(C#N)c2=O)cc(OC)c1OC` was 192 to 195 °C; that for `CCOC(=O)c1cn(-c2nc(NC(C)(C)C)c(F)cc2F)c2c(C)c(F)c(F)cc2c1=O` was 207 to 211 °C. `COc1ccc2c(c1)CCC(=Cc1ccc(OCCCN(C)C)cc1)C2=O`: the melting point lay within 68 to 71 °C.

`COc1ccn2nc(-c3ccccc3F)c(-c3ccc(=O)n(C(C)C)n3)c2c1` showed a melting point of 174 to 175 °C. The compound `CN(C)c1ccc(-c2nc(Cl)c(CC#N)n2Cc2ccccc2)cc1Cl` displayed a melting point of 142 to 143 °C.

`Nc1sc(CCC(=O)O)cc1C(=O)c1ccccc1Cl`: the melting point fell in the range of 170 to 173 °C. In turn, `CCc1ncnc2cc(OC)c(OCC3CO3)cc12` (stereo not drawn) yielded a melting point of 120 to 122 °C.

Consider `CCCCC1C=C(n2c3ccccc3c3ccccc32)c2ccccc2N1C(=O)c1ccc(OC)c(OC)c1` (stereo not drawn), for which the melting point is 174 to 175 °C. `CS(=O)(=O)c1ccc(-c2nn(Cc3ccccc3)c(=O)cc2-c2ccc(F)cc2)cc1` showed a melting point of 188 °C. `COCCOc1cc(CCC(=O)O)n(Cc2ccc(Cl)cc2Cl)n1` had a melting point of 111 to 113 °C.

Turning to `CNN(NC)C(=S)Oc1cccnc1C(=O)OC`, the melting point lay in the range of 74 to 75 °C. Take `O=[N+]([O-])c1cnccc1-c1ccc(Cl)cc1`: the melting point lay within 74 to 76 °C. As for `Cc1cc(CC=CCO)c(O)c2c1NC(=O)C2(C)C`, the figure is 174 °C; as for `CN1CCN(c2ccc(/C=C/C(=O)O)cc2)CC1`, 223 to 226 °C; as for `Cn1nc(C(C)(C)c2ccc(Cl)cc2)nc1-c1c(F)cccc1Cl`, 97 to 100 °C.

In the case of `CC1(C)CC(O)C(C)(C)c2cc(/C=C/c3ccc(C(=O)O)cc3)c(Cn3cccn3)cc21` (stereo not drawn), the melting point is 248 °C. Consider `Cc1c(C(=O)O)oc2ccc(OCCNC[C@@H](O)c3csc(C(F)(F)F)n3)cc12`, for which the melting point was 128 to 131 °C. For the compound `CCc1c(N)c(C(N)=O)nn1CCOC`, the melting point worked out at 131 °C. `COCCCCCCCCCCCCCCSCCCO` showed a melting point of 35 to 37 °C. As for `CC1(C)C(=CC=C2C(=O)c3ccccc3C2=C(C#N)C#N)N2CCc3cccc1c32`, the figure is 277 °C; as for `Cc1noc(NS(=O)(=O)c2ccccc2-c2ccc(-c3ncco3)cc2CN2CC(C)(C)CC2=O)c1C`, 118 to 125 °C; as for `CC(=O)n1cc(-c2ccccc2)nc1-c1ccccc1C`, 102 to 104 °C. Compound `COCOc1ccccc1-c1cc(-c2cccc(C(=O)OC)c2)c(C#N)c(NC(=O)c2cccs2)n1` displayed a melting point of 159 to 160 °C. Compound `CC(=O)C1=C(O)c2ccc3ccccc3c2S(=O)(=O)N1` registered a melting point of 191 to 192 °C. Compound `CCC(C#N)(Cn1cncn1)c1ccc(Br)cc1` (stereo not drawn) registered a melting point of 68 to 70 °C. `Cc1nc(NC(=O)c2cnn3c(C(F)(F)F)cc(-c4ccc(C(F)(F)F)c(Cl)c4)nc23)sc1S(=O)(=O)NC(C)(C)CO` yielded a melting point of 274 °C. With `CC(=O)Nc1ccc(C(=S)SCC(=O)O)cc1`, the melting point lay within 224 to 226 °C.

The compound `N=C(N)NCCNc1c(C(=O)O)cnc2ccccc12` showed a melting point of 267 °C. Compound `O=c1c(CCO)c(O)c2cccnc2n1-c1ccccc1` registered a melting point of 235 to 236 °C. As to `CCOC(=O)CNC(=O)CCCCCNC(=O)c1ccc(F)cc1`, the melting point was in the range of 121 to 122 °C. As for `COC(=O)C1=Cc2cc(-c3ccc(C(C)(C)C)cc3)ccc2S(=O)(=O)CC1`, the melting point is 170 to 172 °C. As for `Cn1ccnc1-c1ccccc1Nc1nc(Nc2ccc3c(c2)C(C)(C)CCC(=O)N3)ncc1Cl`, the figure is 227 °C; as for `CC(=O)SCC(Cc1ccccc1)C(=O)Nc1cc(C)cc(C(=O)O)c1C` (stereo not drawn), 182 to 186 °C; as for `COC(=O)C1=C(C)Nc2ncnc(OC(C)C)c2C1c1cccc([N+](=O)[O-])c1` (stereo not drawn), 218 to 219 °C. For the compound `NC(=O)CNc1ncccc1NC(=O)c1ccccn1`, the melting point lay in the range of 188 to 190 °C.

`CCOC(=O)/C=C(C)/C=C/C=C(C)/C=C(/F)c1c(C)cc(OC)c(C)c1C` had a melting point of 74 to 87 °C. Take `CCN(CC)C(=O)c1cccs1`: the melting point is 50 to 52 °C. As to `Cc1cc(-c2n[nH]c(-c3ccncc3)n2)ccn1`, the melting point fell in the range of 245 to 248 °C.

Compound `Cc1nnc2ccc(-c3cccc(N4CCCC4=O)c3)nn12` displayed a melting point of 235 to 237 °C. Consider `Cc1cc(-c2cccc(C(F)(F)F)c2)c2nc(OCC(F)(F)F)cnc2c1`, for which the melting point was in the range of 46 to 48 °C. Consider `O=C(Nc1cc2cn[nH]c2cc1Cl)c1ccccc1NCc1ccncc1`, for which the melting point was determined as 223 °C. The compound `CC(C)(C)OC(=O)NOCC(O)c1ccccc1` (stereo not drawn) gave a melting point of 97 to 99 °C. In the case of `CCOC(=O)C(CC=Cc1ccccc1)(NC(C)=O)C(=O)OCC`, the melting point lay within 70 to 75 °C. Turning to `CCCc1nn(C)c2c(OCCOc3ccc(CC(OCC)C(=O)OCC)cc3)nc(-c3ccccc3)nc12` (stereo not drawn), the melting point is 80 to 82 °C. The compound `CC#Cc1ccc(NC(=O)c2ccccc2NCc2ccc(=O)[nH]c2)cc1C(F)(F)F` came in with a melting point of 208 to 212 °C.

Turning to `Oc1cccc(C(O)(c2nccs2)C(F)(F)F)c1` (stereo not drawn), the melting point is 94 to 96 °C.

In turn, `Cc1cccc(-c2ccccc2)c1NC(=S)NC(=O)c1ccccc1` had a melting point of 172 to 173 °C.

In turn, `COc1cc(C(=O)N(C(C)C)C(C)C)ccc1OCCCCCOc1ccc(C#N)cc1` displayed a melting point of 90 to 92 °C. The compound `Cc1nc(Cl)c2c(c1O)COC2C` (stereo not drawn) had a melting point of 248 °C.

`COc1cc2c(cc1Cl)C(O)Cc1ccccc1S2` (stereo not drawn): the melting point was 130 to 132 °C. Turning to `CC1=C(C(=C2SCSCS2)c2ccc(C)cc2)CN(C)O1`, the melting point lay within 89 to 90 °C.

For `CCc1nnc2c(O)nc3cc(F)ccc3n12`, the melting point is more than 300 °C. For the compound `CCOc1cc(N(C)C)c(Cl)cc1C(=O)NC1CCN(Cc2ccccc2)C1` (stereo not drawn), the melting point was in the range of 112 to 113 °C. Regarding `CCCCCCCCCCOc1cc(C(=O)O)c(OCCCCCCCCCC)cc1C(=O)O`, the melting point was in the range of 136 to 137 °C. On to `C=COCCONC(=O)c1cc(F)c(F)c(F)c1Nc1ccc(I)cc1Cl`, for which the melting point was 115 to 116 °C. Regarding `COC(=O)CCC(=O)c1ccc(C)cc1OCC1CO1` (stereo not drawn), the melting point lay in the range of 61.5 to 63 °C. In turn, `C#CCOc1ccc(S(=O)(=O)C2(C(=O)O)CCN(Cc3ccc(OC)cc3)CC2)cc1` displayed a melting point of 208 °C.

`CS(=O)(=O)Nc1ccc([N+](=O)[O-])cn1` returned a melting point of 217 to 220 °C.

`O=C(Nc1ccc(Cl)cn1)c1cc(Cl)ccc1NCC1CCN(C2CCCCCC2)CC1` yielded a melting point of 170 to 172 °C. As to `CCc1cccc2c3c([nH]c12)C(CC)(CCOC(C)=O)OCC3` (stereo not drawn), the melting point is 126 to 127 °C.

Compound `CC(c1ccc(OC(=O)CCl)cc1)(c1ccc(OC(=O)CCl)cc1)c1ccc(OC(=O)CCl)cc1` gave a melting point of 144 to 146 °C. Turning to `CCSc1ccc2c(c1)C(=O)Cc1ccccc1N2C`, the melting point lay in the range of 54 to 55 °C. Regarding `COc1cc(C=O)c(CCC(=O)O)c(C=O)c1O`, the melting point was in the range of 164 to 166 °C.

On to `CC(O)C=CS(C)(=O)=O` (stereo not drawn), for which the melting point lay in the range of 70 to 72 °C. On to `O=C(N[C@H]1CCCNC1=O)c1cccc(F)c1F`, for which the melting point lay in the range of 160 to 162 °C. Turning to `Cn1c(=O)c2ncn(CCCCCC(=O)O)c2n(C)c1=O`, the melting point is 177 °C. For the compound `N#Cc1ccc(NC(=O)c2cccc(S(=O)(=O)N3CCOCC3)c2)c(-c2n[nH]c(=O)o2)c1`, the melting point fell in the range of 283 to 285 °C. As to `Nc1nc2cccnc2c2c1nc(CCO)n2CC1(O)CCOCC1`, the melting point was 226 to 227 °C. On to `CC(C)c1nc(C(N)(C(F)(F)F)C(F)(F)F)[nH]c1-c1ccc(S(C)(=O)=O)cc1`, for which the melting point lay within 155 to 157 °C. Turning to `Nc1ccc2ncc(Br)cc2c1`, the melting point lay within 151 to 152 °C. Compound `CCCCCC(C)(O)C=CC1CCC(=O)C1CCCCCCC(=O)O` (stereo not drawn) came in with a melting point of 61 to 62 °C.

For `CCCCc1nc(C(O)C(C)C)c(C(N)=O)n1Cc1ccc(-c2ccccc2C(=O)O)cc1` (stereo not drawn), the melting point was more than 131 °C. In turn, `CC(=O)NC(=Cc1ccc(C#N)cc1)C(=O)N[C@H](C(=O)O)C1CCCCC1` registered a melting point of 196 to 198 °C. As for `CCN(CC)CC#CCNC(=O)C(O)(c1ccccc1)C1CCCCC1` (stereo not drawn), the figure is 102 to 104 °C. For the compound `CCOP(=O)(Cc1ccc(NC(=O)/C=C/c2cnn(Cc3ccccc3)c2-c2ccc(F)cc2)cc1)OCC`, the melting point is 207 to 208 °C.

In turn, `O=C1c2ccccc2C(=O)c2sc(-c3ccc(Br)o3)nc21` came in with a melting point of more than 260 °C. In the case of `CN(C)C=Nn1cc(-c2ccc([N+](=O)[O-])o2)nn1`, the melting point lay within 239 to 241 °C. For `Oc1cc(O)cc(-c2ccccc2)c1`, the melting point was in the range of 157 to 158 °C.

`CCN(CC)Cc1cnc2c(C)c(NC(=O)c3ccc(-c4ccc(F)cc4)cc3)ccc2c1` displayed a melting point of 155 to 156 °C. In turn, `O=C(O)c1ccc(OCCNC(=O)C2Cc3ccccc3N2S(=O)(=O)c2ccc(-c3cccc(C(F)(F)F)c3)cc2)c(F)c1` (stereo not drawn) had a melting point of 96 to 104 °C. On to `CCOc1nsc(NC(=O)NC)c1C#N`, for which the melting point worked out at 244 °C.
